Experimental data taken from patent US9259452B2, “Deacetylase inhibitor therapy” (Celgene Corporation, priority 2006, dated 2016).
“And” between values parts separate entries of the source, which are not always exact repeats. Identical values can stand only once. Marks after values point to notes of the source that are not given here.

Columns and labels:
[1] = ECG evaluation of T-wave (grade 1) and ST segment (grade 2) abnormalities, phase II trial of romidepsin in T-cell lymphoma patients; type: in vivo, human
Excerpt: The protocol (NCI 01-C-0049 or 1312) and informed consent were approved by the Institutional Review Board of the National Cancer Institute. All data used in this analysis were obtained from patients who signed an informed consent and were enrolled and treated at the NIH Warren Grant Magnuson Clinical Center. Toxicities were reported using the National Cancer Institute Common Toxicity Criteria, CTC version 2.0. The Inclusion Criteria required measurable disease, an age of 18 years or older, an ECOG performance status of 0, 1 or 2, and a life expectancy of >12 wk. Required laboratory values included AGC≧1000/μL, platelets≧100,000/μL, bilirubin <1.5× the institutional upper limit of normal (ULN), AST <3×ULN, and creatinine <1.5×ULN. Patients with a myocardial infarction within the previous 6 months, a left ventricular ejection fraction (LVEF) below normal (<45% if performed by MUGA, or <50% if performed by echocardiogram or cardiac MRI), a corrected QT interval of >500 ms, unstable angina, or third degree heart block (unless with pacemaker) were not eligible to enroll.
Subsequently, the protocol was amended and all patients were treated on days 1, 8 and 15 of a 28 day cycle, with a starting dose of 14 mg/m^2. This change was made for improved patient tolerability. […] Provisions for dose reduction were made in the case of grade 3 or 4 toxicity. Alternatively, a dose increase was allowed for patients who had no serious toxicities.

[2] = Post-treatment echocardiogram, global LV function; type: in vivo, human
Protocol: Post treatment evaluation of cardiac function (LVEF): Echocardiograms to evaluate cardiac function were also performed on the day following the last dose of the cycle; day 6 for patients treated on days 1 and 5, or day 16 for patients treated on days 1, 8 and 15.
Post-treatment global LV function: To determine whether the observed ECG abnormalities were associated with acute LV wall motion abnormalities, echocardiograms were performed on the day following the last dose of the cycle (d 6 for patients treated on days 1 and 5, and day 16 for patients treated on days 1, 8, and 15).

[3] = QTc analysis (heart rate-corrected QT interval) on ECGs, phase II trial; settings: for Least Square mean QT interval: all doses of first 6 cycles
[4] = Serum cardiac troponin I and CPK levels prior to and on the day after each dose
Protocol: An additional ECG was obtained on day 3 of the first cycle. ECGs were obtained using an HP Pagewriter XLi or a GE Marquette MAC1200 and recorded at 25 mm/sec, with an amplitude of 10 mm/mV and with 60 Hz filtering. They were analyzed using Pagewriter A.04.01 ECG analysis software (Philips Medical Systems). The QT interval measurement in this program is made by averaging the five longest QT intervals with a T or T′ wave amplitude greater than 0.15 mV. […] Grade 1 toxicity was defined as nonspecific T-wave abnormalities, (flattening or inversion without ST segment abnormalities) and Grade 2 as ST segment depression of at least 1 mm in at least 2 leads. If both were observed, then the ECG was assigned a grade 2 toxicity. […] The QTc analysis was performed on ECGs obtained during the first six cycles from patients treated on the day 1, 8 and 15 schedule (37 patients). ECGs from patients with an intraventricular conduction delay, defined as QRS duration greater than 100 ms, were excluded from the QTc analysis since in that setting the QTc interval includes a variable depolarization interval that leads to a prolonged QTc value (22).

[5] = among 123 ECGs, day 6 or day 16
[6] = Bazett's formula, 2051 ECGs, 42 patients
[7] = first 6 cycles, all 42 patients
[8] = re-calculated using Friderica's formula
[9] = obtained in parallel with elevated cTnI samples, individual cases

Question: Which “Grade 2 ECGs meeting criteria consistent with ischemia (1 mm ST segment depression 80 msec after end of QRS)” value ([1]; of 69 ECGs scored grade 2, cardiologist review) does the source give for `C/C=C1\NC(=O)[C@H]2CSSCC/C=C/[C@H](CC(=O)N[C@H](C(C)C)C(=O)N2)OC(=O)[C@H](C(C)C)NC1=O` [romidepsin, (1S,4S,10S,16E,21R)-7-[(2Z)-ethylidene]-4,21-diisopropyl-2-oxa-12,13-dithia-5,8,20,23-tetraazabicyclo[8.7.6]tricos-16-ene-3,6,9,19,22-pentanone] here?
Answer: 45%

Question: What about the “Patients returning for the second cycle with no evidence of T-wave or ST-segment abnormalities” value ([1]; of the 34 patients returning for cycle 2) of the same compound?
Answer: Twenty-eight

Question: And the “ECGs with ST-segment depression obtained on the same day as the echocardiogram” value [2, 5]?
Answer: 23

Question: What about the “ECGs with T-wave flattening obtained on the same day as the echocardiogram” value [2, 5] of the same compound?
Answer: 82

Question: And the “ECGs with no abnormalities obtained on the same day as the echocardiogram” value [2, 5]?
Answer: 18

Question: And the “Echocardiograms demonstrating a change from baseline (acute LV wall motion)” value ([2]; day following last dose of the cycle (day 6 or day 16), 145 echocardiograms, 34 patients)?
Answer: None

Question: What about the “Maximal increase of QTc, median” value ([3]; 31 patients, first six cycles) of the same compound?
Answer: 11.3%

Question: And the “Maximum increase in QTc” value ([3]; 31 patients, first six cycles)?
Answer: 78.25 ms

Question: And the “Doses associated with a 30 to 60 ms prolongation of QTc” value ([3]; 349 doses, 31 patients)?
Answer: 25%

Question: What about the “Doses associated with a greater than 60 ms prolongation of QTc” value ([3]; 349 doses, 31 patients) of the same compound?
Answer: 2.6%

Question: And the “Median change of QTc from baseline” value ([3]; 670 ECGs obtained immediately post-treatment or on the day following treatment)?
Answer: 13.42 ms

Question: What about the “Share of ECGs with QTc over 450 ms that were obtained immediately post treatment or on the day following treatment” value ([3]; Bazett's formula) of the same compound?
Answer: Eighty-nine

Question: And the “Number of patients with QTc greater than 450 ms” value ([3]; Bazett's formula, 42 patients)?
Answer: 28

Question: And the “Number of patients with QTc greater than 480 ms” value ([3]; Bazett's formula, 42 patients)?
Answer: 10

Question: What about the “Number of patients with QTc greater than 500 ms” value ([3]; Bazett's formula, 42 patients) of the same compound?
Answer: 4

Question: What about the “Number of ECGs with QTc greater than 450 ms” value [3, 6] of the same compound?
Answer: 163

Question: What about the “Number of ECGs with QTc greater than 480 ms” value [3, 6] of the same compound?
Answer: 20

Question: And the “Number of ECGs with QTc greater than 500 ms” value [3, 6]?
Answer: 5

Question: And the “Share of ECGs with QTc greater than 450 ms” value [3, 6]?
Answer: 8.0%

Question: And the “Share of ECGs with QTc greater than 480 ms” value [3, 6]?
Answer: 1%

Question: What about the “Share of ECGs with QTc greater than 500 ms” value [3, 6] of the same compound?
Answer: 0.2%

Question: What about the “QTc Interval Difference [D2]-[4 hr], Median” value ([3]; C1) of the same compound?
Answer: 0.0 ms

Question: And the “QTc Interval Difference [D3]-[Baseline], Median” value ([3]; C1)?
Answer: -2.5 ms

Question: And the “QTc Interval Difference [D3]-[D2], Median” value ([3]; C1)?
Answer: -20.0 ms

Question: And the “QTc Interval Difference [D2]-[Baseline], Median” value ([3]; C1 (cycle 1))?
Answer: 10.8 ms

Question: What about the “QTc Interval Difference [4 hr]-[Baseline], Median” value ([3]; C1 (cycle 1), first dose, day 1, 8, 15 schedule) of the same compound?
Answer: 16.5 ms

Question: And the “QTc Interval Difference [4 hr]-[Baseline], Median” value ([3]; C2)?
Answer: 8.0 ms

Question: And the “QTc Interval Difference [D2]-[Baseline], Median” value ([3]; C2)?
Answer: 13.2 ms

Question: And the “QTc Interval Difference [4 hr]-[Baseline], Median” value ([3]; C3)?
Answer: 15.5 ms

Question: What about the “QTc Interval Difference [D2]-[Baseline], Median” value ([3]; C3) of the same compound?
Answer: 5.3 ms

Question: And the “QTc Interval Difference [4 hr]-[Baseline], Median” value ([3]; C4)?
Answer: 15.9 ms

Question: What about the “QTc Interval Difference [D2]-[Baseline], Median” value ([3]; C4) of the same compound?
Answer: 15.5 ms

Question: What about the “QTc Interval Difference [4 hr]-[Baseline], Median” value ([3]; C5) of the same compound?
Answer: 18.2 ms

Question: And the “QTc Interval Difference [D2]-[Baseline], Median” value ([3]; C5)?
Answer: 14.8 ms

Question: And the “QTc Interval Difference [4 hr]-[Baseline], Median” value ([3]; C6)?
Answer: 18.8 ms

Question: What about the “QTc Interval Difference [D2]-[Baseline], Median” value ([3]; C6) of the same compound?
Answer: 17.8 ms

Question: What about the “Least Square mean QT interval” value ([3]; Post dose, 31 patients, p < 0.0001 vs pre-dose) of the same compound?
Answer: 424.1*

Question: What about the “Least Square mean QT interval” value ([3]; Pre-dose, 31 patients) of the same compound?
Answer: 409.7

Question: What about the “Maximum increase in QTc over that patient's mean baseline QTc” value ([3]; baseline QTc of 415.75) of the same compound?
Answer: 19%

Question: What about the “Least Square mean QT interval” value ([3]; day 1 (pre-treatment), 31 patients, repeated measures ANOVA) of the same compound?
Answer: 410.3

Question: And the “Least Square mean QT interval” value ([3]; day 2 (day after treatment), 31 patients)?
Answer: 422.7

Question: What about the “Least Square mean QT interval” value ([3]; day 8 (pre-treatment), 31 patients) of the same compound?
Answer: 410.8

Question: And the “Least Square mean QT interval” value ([3]; day 9 (day after treatment), 31 patients)?
Answer: 426.0

Question: What about the “Least Square mean QT interval” value ([3]; day 15 (pre-treatment), 31 patients) of the same compound?
Answer: 408.0

Question: What about the “Least Square mean QT interval” value ([3]; day 16 (day after treatment), 31 patients) of the same compound?
Answer: 423.7

Question: What about the “Doses associated with a 30 to 60 ms prolongation of QTc” value [3, 7] of the same compound?
Answer: 24%

Question: What about the “Doses associated with a greater than 60 ms prolongation of QTc” value [3, 7] of the same compound?
Answer: 3.2%

Question: What about the “Time after treatment by which QTc changes had reverted to baseline” value ([3]; first cycle) of the same compound?
Answer: ≤ 48 h

Question: And the “Number of ECGs demonstrating an increased QTc from baseline” value ([3]; of 670 ECGs obtained immediately post-treatment or on the day following treatment, 31 patients)?
Answer: 514

Question: What about the “Number of ECGs with QTc greater than 450 ms” value [3, 8] of the same compound?
Answer: 27

Question: And the “Number of ECGs with QTc greater than 480 ms” value [3, 8]?
Answer: 3

Question: And the “Number of patients with QTc greater than 450 ms” value [3, 8]?
Answer: 15

Question: And the “Number of patients with QTc greater than 480 ms” value [3, 8]?
Answer: 3

Question: And the “QTc greater than 500 ms” value [3, 8]?
Answer: no QTc was greater than 500 ms

Question: What about the “Share of ECGs with QTc greater than 450 ms” value [3, 8] of the same compound?
Answer: 1.3%

Question: And the “Share of ECGs with QTc greater than 480 ms” value [3, 8]?
Answer: 0.1%

Question: And the “Number of cTnI samples found to be elevated” value ([4]; from 8 patients, 601 pre-treatment and 590 day-after samples)?
Answer: 10

Question: What about the “CPK Post-treatment” value [4, 9] of the same compound?
Answer: 20 and 28 (2×) and 18 and 16 and 85 and 157 and 144 and 162

Question: And the “CPK Pre-treatment” value [4, 9]?
Answer: 29 and 43 and 27 and 47 and 70 and 200 and 179 and 28 and 39 and 160

Question: What about the “CPK samples obtained in parallel with the 10 elevated cTnI samples” value ([4]; range, unchanged from pre-treatment) of the same compound?
Answer: 16-200

Question: And the “Troponin Post-treatment” value ([4]; serum cTnI, day following treatment, individual cases)?
Answer: 2.1-3.3 ng/ml and ≦0.2 ng/ml and 3.3 ng/ml and 2.1 ng/ml and 2.6 ng/ml and 8.3 ng/ml and 2.3 ng/ml and 15.8 ng/ml and 3.6 ng/ml

Question: And the “Troponin Repeat (of elevated pre-treatment sample)” value ([4]; serum cTnI, individual cases)?
Answer: ≤ 0.2 ng/ml and ≦0.2 ng/ml

Question: What about the “Troponin Pre-treatment” value ([4]; serum cTnI, individual cases with an elevated sample among 1191 samples) of the same compound?
Answer: 3.4-11.3 ng/ml and 11.3 ng/ml and ≦0.2 ng/ml and 3.4 ng/ml and 6.4 ng/ml

Question: And the “Troponin Repeat (of elevated post-treatment sample)” value ([4]; serum cTnI, repeated the same day, individual cases)?
Answer: ≤ 0.2 ng/ml and ≦0.2 ng/ml
